# Source: patent US20240287042A1, “NOVEL COMPOUND HAVING INHIBITORY ACTIVITY AGAINST PENDRIN, AND PHARMACEUTICAL USES THEREOF” (UIF (University Industry Foundation), Yonsei University, priority 2021, published 2024)
# Assays:
# [1] = system: LPS-induced acute lung injury model; assay: LPS-induced acute lung injury model, i.p. pre- and post-treatment; format: in vivo, C57BL/6N mice; details: vs vehicle-treated LPS mice
# Procedure: Wild-type male C57BL/6N mice aged 8 to 10 weeks and weighing 20-24 g were purchased from Orient Bio (Seongnam, South Korea). […] Specifically, LPS (Escherichia coli, 0111: B4, Sigma) (10 μg/g) dissolved in 50 μL PBS was administered by intranasal (i.n.) inhalation. The control group received 50 μL of sterile PBS through intranasal administration. For pretreatment, YPI-A4948 dissolved in 50 μL DMSO was administered intraperitoneally (i.p) at 0.1 mg/kg, 1.0 mg/kg and 10 mg/kg, respectively, 1 hour before LPS inhalation, and for post-treatment, YPI-A4948 was administered at 0.1 mg/kg, 1.0 mg/kg, and 10 mg/kg, respectively, 12 hours after LPS inhalation. The vehicle control group was intraperitoneally administered with 50 μL DMSO at the same time point as pretreatment and post-treatment. Mice were euthanized 48 hours after LPS inhalation to remove the lungs. In addition, BALF cytospin staining and H&E lung tissue staining were performed to observe the degree of lung injury.
# [2] = system: C57BL/6N mice; assay: Diuretic effect in mice (urine volume); format: in vivo; details: i.p. twice at 3 h interval, urine volume after 6 hours, alone
# Procedure: Wild-type male C57BL/6N mice aged 8 weeks and weighing 20-24 g were purchased from Orient Bio (Seongnam, South Korea). Before the experiment, water and diet were restricted, and the bladder was stimulated to induce urine. A 100 mg/ml stock concentration of YPI-A4948 dissolved in DMSO was prepared to have final concentrations of 0.001 mg/kg/100 ul, 0.005 mg/kg/100 ul and […] mg/kg/100 ul, 0.1 mg/kg/100 ul, 0.5 mg/kg/100 ul and 1 mg/kg/100 ul (1% DMSO+DW), respectively, and injected intraperitoneally twice with an interval of 3 hours. After 6 hours, the urine volume of each group of mice was measured.
# [3] = target: T1, SLC26A6 (Homo sapiens, UniProt Q9BXS9); assay: SLC26A6 activity, YFP fluorescence in LN-215 cells; format: cell-based; details: FIG. 16
# T1 construct: expressed in transfected cells
# T1 sequence (Q9BXS9 1-759): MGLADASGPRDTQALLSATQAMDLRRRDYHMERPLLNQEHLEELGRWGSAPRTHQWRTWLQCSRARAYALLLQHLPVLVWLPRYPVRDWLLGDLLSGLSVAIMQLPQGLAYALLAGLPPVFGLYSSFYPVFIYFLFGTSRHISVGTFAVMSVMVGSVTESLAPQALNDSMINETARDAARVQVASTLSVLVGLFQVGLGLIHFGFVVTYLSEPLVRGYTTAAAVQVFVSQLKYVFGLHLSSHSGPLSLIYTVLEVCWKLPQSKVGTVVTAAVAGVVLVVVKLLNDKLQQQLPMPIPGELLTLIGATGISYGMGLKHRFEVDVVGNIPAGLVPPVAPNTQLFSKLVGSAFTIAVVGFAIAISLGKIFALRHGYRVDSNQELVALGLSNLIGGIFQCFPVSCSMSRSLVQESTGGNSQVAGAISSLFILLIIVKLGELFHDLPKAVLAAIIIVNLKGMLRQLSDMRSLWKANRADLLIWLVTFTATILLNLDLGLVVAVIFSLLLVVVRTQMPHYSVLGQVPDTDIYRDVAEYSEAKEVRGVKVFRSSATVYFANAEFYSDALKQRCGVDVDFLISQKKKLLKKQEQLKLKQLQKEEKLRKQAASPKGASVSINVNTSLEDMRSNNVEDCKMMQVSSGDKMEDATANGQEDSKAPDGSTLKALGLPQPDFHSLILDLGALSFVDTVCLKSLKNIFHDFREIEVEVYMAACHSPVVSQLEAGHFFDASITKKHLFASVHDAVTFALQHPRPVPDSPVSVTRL
# Procedure: In the case of SLC26A3 and SLC26A6, each transporter protein and halide sensitive YFP were expressed in LN-215 cells to measure the activity of the transporter protein.
# Other details were carried out in the same manner as Example 5.
# [4] = system: human nasal epithelial cells (HNE); assay: Volume of airway surface liquid (ASL) in IL-4-treated differentiated human nasal epithelial cells; format: cell-based; details: 30 μM, IL-4 10 ng/ml, 48 hours
# Procedure: For differentiation of primary cultures of human nasal epithelial cells, cells were cultured in Transwell (Transwell, Costar Co., Cambridge, MA) with 0.45 µm pores at a density of 2×10^5 cells/cm^2. Cells were cultured in a 1:1 mixed culture medium of Dulbecco's modified Eagle's medium (Lonza) and bronchial epithelial growth medium (Lonza) supplemented with the following growth factors, while changing the medium every 2 to 3 days. The cells were cultured in a precipitated state in the culture medium for the first 7 days, and during the subsequent culture period, and cultured by exposing the upper part of transwell to air. After establishment of the air-liquid interface (ALI), cells were cultured and differentiated for 21 days. At all stages of culture, the cell culture medium was maintained at 5% CO2 and 37° C.
# Vehicle, IL-4 (10 ng/ml), and YPI-H05 (30 μM) were added to the basal fluid of transwell in which differentiated NHE cells expressing normal pendrin were growing, and cultured at 37° C. under 5% CO2 in an incubator for 48 hours. After cultured, a round filter paper with a diameter of 10 mm was placed in the lumen side of the transwell and left for 10 seconds to absorb moisture from the airway surface liquid. Changes in the volume of airway surface liquid were measured through increased filter paper weight using a precision electronic balance.
# [5] = i.p. 0.1, 1.0, 10 mg/kg 1 h before and 12 h after LPS
Effect on activity of SLC26A6 [3],SMILES,"BALF protein concentration [1, 5]","BALF total cell counts [1, 5]",Lung injury (BALF cytospin and H&E lung tissue staining) ([1]; i.p. before and after LPS),Dose from which a diuretic effect is exhibited [2] [mg/kg],Volume of airway surface liquid (ASL) reduced by IL-4 [4]
did not inhibit,"Cc1ccc2[nH]c(C(=O)O)c(CC(=O)N3CCN(c4c(C)cccc4Cl)CC3)c2c1 [YPI-A4948, 3-(2-(4-(2-Chloro-6-methylphenyl)piperazin-1-yl)-2-oxoethyl)-5-methyl-1H-indole-2-carboxylic acid]",significantly reduced,significantly reduced,significantly reduced,≥ 0.01,–
–,"Cc1ccc(C)c(N2CCN(C(=O)Cc3c(C(=O)O)[nH]c4ccc(Cl)cc34)CC2)c1 [YPI-H05, 5-chloro-3-(2-(4-(2,5-dimethylphenyl)piperazin-1-yl-)-2-oxoethyl)-1H-indole-2-carboxylic acid]",–,–,–,–,significantly increased
